Experimental data published in US8992890B2, “Absorbent dressings with painkilling activity” (Fidia Farmaceutici S.p.A., priority 2011, dated 2015).

Assay: Release of diclofenac from the formulation, in vitro, Franz cell, rabbit plasma
Format: in vitro ADME
Procedure: The evaluation of the release kinetics of Diclofenac from the formulation was conducted with a Franz cell, comparing the release of the diclofenac contained in the formulation described in example 1 with an identically formulated composition containing diclofenac sodium (DCFNa) instead of diclofenac acid, at the same percentage.
The Franz cell is an instrument known to the skilled person; briefly, and very simply, it consists of two chambers, the lower one being called the receptor, while the upper one is called the donor. The two cells are separated by a porous membrane and connected to one another; the medium in which the diffusion of the active ingredient in question will be evaluated is loaded into the receptor chamber, and the product to be evaluated is loaded into the donor chamber. The medium flows against the separator membrane, and therefore comes into contact with the product loaded into the donor chamber; the active constituent spreads through the membrane to the receptor chamber, from which aliquots are sampled for testing to determine the extent of release of the active ingredient.
In this specific case, the receptor chamber was loaded with rabbit plasma (10.2 ml); approx. 73 mg of the formulation of Example 1 based on diclofenac acid (DCF/H+), accurately weighed, was placed in the donor chamber, distributed on a cellulose acetate membrane with a porosity (cut-off) of 0.2μ, wetted with rabbit plasma, and an area of 3.46 cm2. When the operating procedures of the Franz cell had been activated, 0.3 ml samples of rabbit serum were taken from the receptor chamber, which was topped up with fresh serum from time to time. The diclofenac is determined by spectrophotometric analysis, calibrating the instrument with rabbit plasma to take account of the effect of the medium on the release of the medicament.
The same procedure was followed to measure the release of diclofenac sodium (DCF/Na) formulated identically to the formulation of Example 1 in qualitative and quantitative terms.

duration of release (formulation of Example 1) | drug released after approx. 8 hours (formulation of Example 1, approx. 8 hours) [%] | time within which the drug is exhausted (formulated identically to Example 1 (0.8%)) [h] | medicament released in the first 4 hours (formulated identically to Example 1 (0.8%), first 4 hours) | SMILES
at least 48 hours | 60 | – | – | O=C(O)Cc1ccccc1Nc1c(Cl)cccc1Cl [diclofenac acid]
– | – | ≤ 24 | over 90% | O=C(O)Cc1ccccc1Nc1c(Cl)cccc1Cl [diclofenac sodium]
